Assay results: patent US12435128B2, “Method for predicting therapeutic effect of LSD1 inhibitor based on expression of INSM1” (TAIHO PHARMACEUTICAL CO., LTD., priority 2017, dated 2025)
Counter-ions that a name gives are not always drawn. Like-named read-outs stand apart in the source and are kept apart here.

Tests used:
Type in all cases: cell-based
[1] = test system: NCI-H1417 cells (human small-cell lung cancer cell lines); test: Cell-growth inhibition test: NCI-H1417 cells
Method: (§1) Under the following conditions, an in vitro cell-growth inhibition test was performed with respect to HEL cells (human acute myelocytic leukemia cell lines), NCI-H1417 cells (human small-cell lung cancer cell lines), and NCI-H146 cells (human small-cell lung cancer cell lines).
(§2) The cells with the Example compound or with dimethylsulfoxide alone were cultured at 37° C. in a 5% carbon-dioxide-containing incubator for 5 days (HEL cells) or 10 days (NCI-H1417 cells and NCI-H146 cells). After culture, the plate was allowed to stand at room temperature for 30 minutes, and 100 μL of the supernatant was removed from each well to leave 100 μL of the cell culture solution. To each well containing the remaining 100 μL of the cell culture solution, the same amount of CellTiter-Glo 2.0 Assay (Promega, Cat #: G9242) was added. The microplate was shaken with a plate mixer for 1 minute and then allowed to stand in a dark place for 10 minutes. Thereafter, the luminescence intensity of viable cells in each well was measured using a microplate reader (PerkinElmer, EnSpire). […] Cell growth rate(%)=T/C×100 • T: The luminescence intensity in a well to which the test compound was added (count per second) • C: The luminescence intensity in a well to which dimethylsulfoxide alone was added (count per second)

[2] = test system: NCI-H146 cells (human small-cell lung cancer cell lines); test: Cell-growth inhibition test: NCI-H146 cells
Method: as §1, §2

[3] = test system: HEL cells (human acute myelocytic leukemia cell lines); test: Cell-growth inhibition test: HEL cells; conditions: read-out: IC50 (nM), Cell-Growth Inhibition Test: HEL Cells
Method: as §1, §2

[4] = read-out: IC50 (nM), Cell-Growth Inhibition Test: NCI-H1417 Cells
[5] = NCI-H146 cells, read-out: IC50 (nM), Cell-Growth Inhibition Test: NCI-H146 Cells
[6] = NCI-H1417 cells, read-out: IC50 (nM), Cell-Growth Inhibition Test: NCI-H1417 Cells
[7] = Homo sapiens, NCI-H1417, read-out: IC50 (nM), Cell-Growth Inhibition Test: NCI-H1417 Cells
[8] = Homo sapiens, NCI-H146, read-out: IC50 (nM), Cell-Growth Inhibition Test: NCI-H146 Cells

With CC(C)(O)Cc1ccc(-c2ccc(CN3[C@@H]4CC[C@H]3[C@@H](N)C4)cc2-c2ccc(C#N)c(F)c2)c(F)c1 (single isomer, unassigned) [Example 290, dihydrochloride] as the compound, how does the IC50 [1, 4] read?
The IC50 was 1.06 nM.

And the IC50 [2, 5]?
Its IC50 is 2.12 nM.

What does the source list for Cn1cnc2cc(-c3ccc(C(=O)N4C5CCC4CC(N)C5)cc3-c3ccc(C#N)c(F)c3)c(F)cc21 (stereo not drawn) [Example 130, 4-[5-[(3-endo)-3-amino-8-azabicyclo[3.2.1]octane-8-carbonyl]-2-(6-fluoro-1-methyl-benzimidazol-5-yl)phenyl]-2-fluoro-benzonitrile]?
IC50 ([3]; HEL cells): 22.2 nM; IC50 [1, 6]: 8.25 nM

For CCC(O)(CC)Cn1ncc2cc(-c3ccc(C(=O)N4CC[C@H](N)C4)cc3-c3ccc(C#N)c(F)c3)c(F)cc21 [Example 204, (S)-5′-(3-aminopyrrolidine-1-carbonyl)-2′-(1-(2-ethyl-2-hydroxybutyl)-6-fluoro-1H-indazol-5-yl)-3-fluoro-[1,1′-biphenyl]-4-carbonitrile], which IC50 [1, 7] is on record?
Its IC50 is 1.98 nM.

Which IC50 [1, 7] does the source give for CC(C)(O)Cn1ccc2cc(-c3ccc(C(=O)C4CC5(CNC5)CN4)cc3-c3ccc(C#N)c(F)c3)c(F)c(F)c21 (centres unmarked) [Example 200, 2′-(6,7-difluoro-1-(2-hydroxy-2-methylpropyl)-1H-indol-5-yl)-3-fluoro-5′-(2,7-diazaspiro[3.4]octane-6-carbonyl)-[1,1′-biphenyl]-4-carbonitrile] here?
Its IC50 is 0.18 nM.

CC(C)(O)Cn1nnc2cc(-c3ccc(C(=O)N4[C@@H]5CC[C@H]4[C@@H](N)C5)cc3-c3ccc(C#N)c(F)c3)c(F)c(Br)c21 (single isomer, unassigned) [Example 273] was tested. Which IC50 [3] did it give?
The IC50 was 0.27 nM.

What about the IC50 [2, 5] of the same compound?
Its IC50 is 0.63 nM.

With N#Cc1ccc(-c2cc(C(=O)N3[C@@H]4CC[C@H]3[C@@H](N)C4)ccc2-c2cc3nnn(CC4(O)CCC4)c3c(Cl)c2F)cc1F (single isomer, unassigned) [Example 257] as the compound, how does the IC50 [3] read?
The IC50 was 0.13 nM.

What about the IC50 [2, 5] of the same compound?
The IC50 was 0.39 nM.

With CC(C)(O)Cn1nnc2cc(-c3ccc(C(=O)N4[C@H]5CC[C@@H]4[C@H](N)C5)cc3-c3ccc(C#N)c(F)c3)c(F)c(C3CC3)c21 (single isomer, unassigned) [Example 279] as the compound, how does the IC50 [3] read?
Its IC50 is 1.59 nM.

And the IC50 [1, 4]?
Its IC50 is 0.9 nM.

What does the source list for Cn1cnc2cc(-c3ccc(C(=O)N4C5CCC4CC(N)C5)cc3-c3ccc(C#N)c(F)c3)c(F)cc21 (stereo not drawn) [Example 108, 4-[5-[(3-exo)-3-amino-8-azabicyclo[3.2.1]octane-8-carbonyl]-2-(6-fluoro-1-methyl-benzimidazol-5-yl)phenyl]-2-fluoro-benzonitrile]?
IC50 ([3]; HEL cells): 36.4 nM; IC50 [1, 6]: 3.99 nM

How did the IC50 ([3]; Homo sapiens, HEL) turn out when COCCc1ccc(-c2ccc(C(=O)N3CCCC(N)CC3)cc2-c2ccc(C#N)c(F)c2)c(F)c1 (centres unmarked) [Example 165, 5′-(4-aminoazepan-1-carbonyl)-2″,3-difluoro-4″-(2-methoxyethyl)-[1,1′:2′,1″-terphenyl]-4-carbonitrile] was run?
The IC50 was 0.62 nM.

What about the IC50 [1, 7] of the same compound?
Its IC50 is 1.42 nM.

Which IC50 [3] does the source give for CC(C)(O)Cn1ncc2cc(-c3ccc(C(=O)N4C5CCC4CC(N)C5)cc3-c3ccc(C#N)c(F)c3)c(F)cc21 (stereo not drawn) [Example 142, 5′-((3-endo)-3-amino-8-azabicyclo[3.2.1]octane-8-carbonyl)-3-fluoro-2′-(6-fluoro-1-(2-hydroxy-2-methylpropyl)-1H-indazol-5-yl)-[1,1′-biphenyl]-4-carbonitrile] here?
The IC50 was 3.88 nM.

What about the IC50 [1, 4] of the same compound?
Its IC50 is 3.79 nM.

Cc1ccc(-c2ccc(C(=O)N3C4CCC3CC(N)C4)cc2-c2ccc(C#N)cc2)cc1 (stereo not drawn) [Example 7, 4-[5-[(3-exo)-3-amino-8-azabicyclo[3.2.1]octane-8-carbonyl]-2-(p-tolyl)phenyl]benzonitrile] was tested. Which IC50 ([3]; HEL cells) did it give?
The IC50 was 14.8 nM.

What about the IC50 [1, 6] of the same compound?
Its IC50 is 26 nM.

What does the source list for CC(C)(O)Cn1nnc2cc(-c3ccc(C(=O)N4[C@@H]5CC[C@H]4[C@@H](N)C5)cc3-c3ccc(C#N)c(F)c3)c(F)c(Cl)c21 (single isomer, unassigned) [Example 209]?
IC50 [3]: 0.24 nM; IC50 [2, 5]: 0.22 nM

For CC(C)(O)Cn1nnc2cc(-c3ccc(C(=O)N4[C@@H]5CC[C@H]4[C@@H](N)C5)cc3-c3ccc(C#N)c(F)c3)c(F)c(C(F)F)c21 (single isomer, unassigned) [Example 246], which IC50 [3] is on record?
Its IC50 is 0.37 nM.

And the IC50 [1, 4]?
The IC50 was 0.81 nM.

How did the IC50 [3] turn out when CC(C)(O)Cn1cc(C(=O)O)c2cc(-c3ccc(C(=O)N4[C@@H]5CC[C@H]4[C@@H](N)C5)cc3-c3ccc(C#N)c(F)c3)c(F)cc21 (single isomer, unassigned) [Example 222] was run?
Its IC50 is 38 nM.

And the IC50 [1, 4]?
The IC50 was 41.8 nM.

For N#Cc1ccc(-c2cc(C(=O)N3C4CCC3CC(N)C4)ccc2-c2ccc3cccnc3c2)cc1F (stereo not drawn) [Example 107, 4-[5-[(3-exo)-3-amino-8-azabicyclo[3.2.1]octane-8-carbonyl]-2-(7-quinonyl)phenyl]-2-fluoro-benzonitrile], which IC50 [1, 6] is on record?
Its IC50 is 18.2 nM.

For Cn1nnc2cc(-c3ccc(C(=O)N4CC[C@H](NC5CCC5)C4)cc3-c3ccc(C#N)c(F)c3)c(F)cc21 [Example 116, 4-[5-[(3S)-3-(cyclobutylamino)pyrrolidine-1-carbonyl]-2-(6-fluoro-1-methyl-benzotriazol-5-yl)phenyl]-2-fluoro-benzonitrile], which IC50 [1, 7] is on record?
Its IC50 is 29.5 nM.

For Cn1cc(C(N)=O)c2cc(-c3ccc(C(=O)N4[C@@H]5CC[C@H]4[C@@H](N)C5)cc3-c3ccc(C#N)c(F)c3)c(F)cc21 (single isomer, unassigned) [Example 236], which IC50 [1, 4] is on record?
The IC50 was 11 nM.

And the IC50 [2, 5]?
The IC50 was 28.5 nM.

Cn1c(=O)oc2cc(-c3ccc(C(=O)N4CC[C@H](N)C4)cc3-c3ccc(C#N)c(F)c3)ccc21 [Example 119, 4-[5-[(3S)-3-aminopyrrolidine-1-carbonyl]-2-(3-methyl-2-oxo-1,3-benzooxazol-6-yl)phenyl]-2-fluoro-benzonitrile] was tested. Which IC50 [1, 7] did it give?
The IC50 was 23.9 nM.

With CC(C)(O)Cn1ccc2cc(-c3ccc(C(=O)N4C5CCC4CC(N)C5)cc3-c3ccc(C#N)c(F)c3)c(F)cc21 (stereo not drawn) [Example 136, 5′-((3-endo)-3-amino-8-azabicyclo[3.2.1]octane-8-carbonyl)-3-fluoro-2′-(6-fluoro-1-(2-hydroxy-2-methylpropyl)-1H-indol-5-yl)-[1,1′-biphenyl]-4-carbonitrile] as the compound, how does the IC50 [1, 4] read?
The IC50 was 2.39 nM.

Which IC50 ([3]; HEL cells) does the source give for Cn1nnc2cc(-c3ccc(C(=O)N4C5CCC4CC(N)C5)cc3-c3ccc(C#N)c(F)c3)c(F)cc21 (stereo not drawn) [Example 125, 4-[5-[(3-endo)-3-amino-8-azabicyclo[3.2.1]octane-8-carbonyl]-2-(6-fluoro-1-methyl-benzotriazol-5-yl)phenyl]-2-fluoro-benzonitrile] here?
The IC50 was 7.57 nM.

And the IC50 [1, 6]?
Its IC50 is 8.43 nM.

For CC(C)(O)Cc1ccc(-c2ccc(C(=O)N3C4CCC3CC(N)C4)cc2-c2ccc(C#N)c(F)c2)c(F)c1 (stereo not drawn) [Example 28, 4-[5-[(3-exo)-3-amino-8-azabicyclo[3.2.1]octane-8-carbonyl]-2-[2-fluoro-4-(2-hydroxy-2-methyl-propyl)phenyl]phenyl]-2-fluoro-benzonitrile], which IC50 [1, 6] is on record?
The IC50 was 4.4 nM.

How did the IC50 [1, 7] turn out when Cn1ccc2cc(-c3ccc(C(=O)N4CC[C@H](N)C4)cc3-c3ccc(C#N)c(F)c3)c(F)cc21 [Example 134, (S)-5′-(3-aminopyrrolidine-1-carbonyl)-3-fluoro-2′-(6-fluoro-1-methyl-1H-indol-5-yl)-[1,1′-biphenyl]-4-carbonitrile] was run?
The IC50 was 0.93 nM.

With COCCc1ccc(-c2ccc(C(=O)N3C4CCC3CC(NC(C)C)C4)cc2-c2ccc(C#N)c(F)c2)c(F)c1 (stereo not drawn) [Example 112, 2-fluoro-4-[2-[2-fluoro-4-(2-methoxyethyl)phenyl]-5-[(3-exo)-3-(isopropylamino)-8-azabicyclo[3.2.1]octane-8-carbonyl]phenyl]benzonitrile] as the compound, how does the IC50 [1, 6] read?
The IC50 was 20.5 nM.

For N#Cc1ccc(-c2cc(C(=O)N3CC[C@H](N)C3)ccc2-c2cc3nnn(CC4(O)CCC4)c3c(C(F)F)c2F)cc1F [Example 261, (S)-5′-(3-aminopyrrolidine-1-carbonyl)-2′-(7-(difluoromethyl)-6-fluoro-1-((1-hydroxycyclobutyl)methyl)-1H-benzo[d][1,2,3]triazol-5-yl)-3-fluoro-[1,1′-biphenyl]-4-carbonitrile], which IC50 [2, 8] is on record?
Its IC50 is 32.3 nM.

Which results are given for Cn1c(=O)sc2cc(-c3ccc(C(=O)N4C5CCC4CC(N)C5)cc3-c3ccc(C#N)c(F)c3)ccc21 (stereo not drawn) [Example 133, 4-[5-[(3-endo)-3-amino-8-azabicyclo[3.2.1]octane-8-carbonyl]-2-(3-methyl-2-oxo-1,3-benzothiazol-6-yl)phenyl]-2-fluoro-benzonitrile]?
IC50 ([3]; HEL cells): 17.7 nM; IC50 [1, 6]: 17.9 nM

CC(C)(O)Cn1ncc2cc(-c3ccc(C(=O)N4[C@@H]5CC[C@H]4[C@@H](N)C5)cc3-c3ccc(C#N)c(F)c3)c(F)c(F)c21 (relative stereo) [Example 195, 5′-((1S,2S,4R)-rel-2-amino-7-azabicyclo[2.2.1]heptane-7-carbonyl)-2′-(6,7-difluoro-1-(2-hydroxy-2-methylpropyl)-1H-indazol-5-yl)-3-fluoro-[1,1′-biphenyl]-4-carbonitrile] was tested. Which IC50 [2, 8] did it give?
Its IC50 is 1.28 nM.
